In patent US20190211099A1, “METHODS AND COMPOSITIONS FOR TREATING CANCER WITH SIGLEC-9 ACTIVITY MODULATORS” (KING'S COLLEGE LONDON, priority 2016, published 2019):

Legend:
[1] = test system: indoleamine 2,3-dioxygenase (IDO); assay: IDO mRNA in monocyte-derived macrophages (qRT-PCR); format: cell-based, human; details: macrophages differentiated with GM-CSF or M-CSF
isolated monocytes = assay: Factors released by monocytes after MUC1-ST treatment (protein array, ELISA); format: cell-based, human; details: 100 μg/10^6 cells MUC1-ST, 48 hours
Protocol: (§1) ELISAs for IL-6, IL-12p70, TGF-β1, PAI-1, M-CSF, EGF, SHP2, phospho-SHP2 (Biotechne) were all carried out as per manufacturer's instructions.
Recombinant MUC1-ST was bound to monocytes and the factors released determined using a protein array as follows. Briefly, isolated monocytes were treated with 100 μg/10^6 cells MUC1-ST for 4 hours at 4° C., washed and incubated at 37° C. for 48 hours in AIM-V serum-free media. Supernatant was taken and cytokine production was assessed using a 102 protein array (Bio-Techne).

monocytes [2] = assay: Nitric oxide release by monocytes (Griess method); format: cell-based, human
Protocol: MUC1-ST was further evaluated for its ability to produce pro-inflammatory nitric oxide, a product of the arginine processing enzyme (Thompson et al. (2015) CARCINOGENESIS 36: S232-S253). Supernatant was assessed using the Griess method according to the manufacturer's instructions (Biotium).

monocytes [3] = assay: Calcium flux in monocytes (Fluo-4 intracellular calcium reporter); format: cell-based, human; details: monocytes or macrophages, 100 μg/10^6 cells
Protocol: In addition, in a murine tumor model Siglec-E (the mouse Siglec with the most similarity to human Siglec-9), was associated with a decrease in alternatively activated macrophages (Laubli et al. (2014) PROC. NATL. ACAD. SCI. USA). As a result, the triggering of a calcium flux when MUC1-ST engaged Siglec-9 was investigated. Briefly, monocytes pre-labeled with an intracellular calcium reporter (Fluo-4; Life Technologies) were treated with MUC1-ST, MUC1-T (100 μg/10^6 cells) or a T47D monolayer, for 4 hours at 4° C. The cells were brought up to 37° C. and calcium flux was measured at 530 nm using a plate reader at the indicated time points. Where not indicated, the time point was 60 seconds. When monocytes or macrophages were treated with MUC1-ST, a Siglec-9 dependent increase in calcium influx was observed (FIGS. 13E-F). A calcium flux was also observed when monocytes and T47D cells came into contact. This effect could also be inhibited by the anti-Siglec-9 antibody.

[4] = test system: monocyte derived macrophages; assay: Factors secreted by monocyte derived macrophages treated with MUC1-ST (ELISA); format: cell-based, human
Protocol: as §1
Secreted proteins from monocyte derived macrophages were assayed by ELISA as described in Example 2. […] All of these factors are associated with tumor progression (Duffy et al. (2014) BREAST CANCER RES. 16: 428; Jensen et al. (2002) CLIN. CANCER RES. 9:4423-4434). […] It has been discovered that MUC1-ST/Siglec-9 ‘educated’ monocytes and macrophages have a unique secretome.

Siglec-9 [5] = target: T1, Siglec-9 (Homo sapiens, UniProt Q9Y336); assay: MUC1-ST binding to monocytic cell lines THP-1 and U937, with or without blocking antibody; format: cell-based; design: endogenous in cells; host or cells: THP-1 and U937 cells; details: time and concentration dependent
Protocol: Unless indicated otherwise, all binding experiments using purified immune cell subsets and biotinylated purified recombinant tumor-associated MUC1 glycoforms were performed as follows. 1×10^5 isolated/differentiated cells at 5×10^5 cells per mL were incubated for 4 hours on ice with 10 μg of the appropriate biotinylated recombinant MUC1 glycoform in 0.5% BSA in PBS. Cells were washed in 0.5% BSA in PBS before 1:200 SAPE (Life Technologies) was added for 30 minutes on ice. Cells were washed and analysed by flow cytometry or fluorescent microscopy (after cytospin), using streptavidin-PE (SAPE) as a label.
Target sequence in this assay (Q9Y336 18-463): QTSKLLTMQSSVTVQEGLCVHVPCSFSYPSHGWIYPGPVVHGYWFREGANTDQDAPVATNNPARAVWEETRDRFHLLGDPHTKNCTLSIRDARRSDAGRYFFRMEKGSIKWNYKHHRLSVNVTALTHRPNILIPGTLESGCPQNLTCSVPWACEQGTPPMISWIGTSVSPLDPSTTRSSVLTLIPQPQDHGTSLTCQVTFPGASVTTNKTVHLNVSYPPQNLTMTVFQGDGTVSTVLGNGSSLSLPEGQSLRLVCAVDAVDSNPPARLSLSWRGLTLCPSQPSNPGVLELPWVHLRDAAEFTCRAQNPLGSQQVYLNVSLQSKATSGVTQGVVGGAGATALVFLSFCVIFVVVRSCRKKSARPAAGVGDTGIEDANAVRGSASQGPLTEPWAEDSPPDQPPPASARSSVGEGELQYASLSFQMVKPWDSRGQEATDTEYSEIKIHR

Siglec-9 [6] = target: T1, Siglec-9; assay: Binding of biotinylated MUC1 glycoforms to plate-bound recombinant Siglec fusion proteins; details: 2 μg/ml biotinylated MUC1 glycoform, 4 hours; compared with Siglecs 3, 7 and 10
Protocol: Binding was enhanced when cells were pre-treated with 0.04 U/ml neuraminidase for 30 minutes at 37° C. in PBS (FIG. 3C), which removes competing cis-binding sialic acid sites from the surface of the cells. As this pattern is characteristic of binding to Siglecs (Macauley et al. (2014) NAT. REV. IMMUNOL. 14: 653-666), MUC1-ST binding to Siglecs was tested as follows: mouse anti human IgG was bound to plastic O/N and the plate was blocked using 1% BSA in PBS. Recombinant human Siglec (3, 5, 7, 8, 9 and 10) fusion proteins were added at 2 μg/mL for 2 hours. After incubation with 2 μg/ml biotinylated MUC1 glycoforms for 4 hours, O.D. was measured after the addition of streptavidin-HRP and substrate. […] Although Siglecs 3, 7 and 9 are expressed by monocytes and macrophages (FIG. 3D), a blocking antibody to Siglec-9 inhibited 80-95% of the MUC1-ST binding to these cells (FIGS. 2G-2I, 3E, and 5) indicating this is the dominant binding Siglec. […] Importantly, Siglec-9 bound to the breast cancer cell line T47D that expresses MUC1 carrying sialylated Core-1 glycans (FIG. 2J). Finally, isolated monocytes were bound to 10 μg/mL biotinylated MUC1-ST or 10 μg/mL biotinylated polyacrylamide carrying the ST glycan (PAA-ST; Glycotech).
Target sequence in this assay (Q9Y336 with tags, fused parts or gaps limits assumed): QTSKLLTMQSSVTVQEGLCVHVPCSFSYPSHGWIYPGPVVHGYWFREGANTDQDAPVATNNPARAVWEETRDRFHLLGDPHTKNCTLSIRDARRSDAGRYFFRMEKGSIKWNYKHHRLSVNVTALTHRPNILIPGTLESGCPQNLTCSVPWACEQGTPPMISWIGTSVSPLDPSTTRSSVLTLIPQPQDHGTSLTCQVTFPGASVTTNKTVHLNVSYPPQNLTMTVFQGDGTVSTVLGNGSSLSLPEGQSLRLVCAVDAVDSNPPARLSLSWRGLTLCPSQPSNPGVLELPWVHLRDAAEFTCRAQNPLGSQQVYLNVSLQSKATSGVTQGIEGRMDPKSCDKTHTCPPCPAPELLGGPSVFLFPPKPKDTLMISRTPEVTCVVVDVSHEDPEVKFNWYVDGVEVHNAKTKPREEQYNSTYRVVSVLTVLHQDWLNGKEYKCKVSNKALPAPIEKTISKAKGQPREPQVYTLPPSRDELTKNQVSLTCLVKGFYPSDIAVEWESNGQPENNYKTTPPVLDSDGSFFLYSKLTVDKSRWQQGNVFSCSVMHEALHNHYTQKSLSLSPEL

SHP2 = assay: Activation of SHP2 after MUC1-ST binding; format: cell-based, human
Protocol: as §1
(§2) A Western blot to assay phosphorylation of SHP, which is recruited by phosphorylated Siglec-9 (Avril et al. (2004) supra) was conducted. Monocytes were incubated with MUC1-ST and lysed as described above, and the resulting lysates were separated by SDS PAGE (10% gel) before being transferred, blocked and probed with anti-SHP1 (Santa Cruz), anti-phospho SHP1 (Abcam) and appropriate secondary antibodies. Phosphorylation of SHP was not observed after MUC1-ST binding to Siglec-9 on primary monocytes (FIG. 13C) although again, phosphorylation of SHP1 was observed when Siglec-9 was activated via antibody cross-linking. No activation of SHP2 was observed.

SHP1 = assay: Western blot for phosphorylation of SHP1 in monocytes; format: cell-based, human; details: primary monocytes
Protocol: as §2

Substance: NeuAcα2,3Galβ1-3GalNAc linked via a Ser/Thr of MUC1 [MUC1-ST]
- increase in expression of mRNA encoding IDO [1]: 10-25 fold
- secretion of factors associated with inflammation and tumor progression (IL-6, M-CSF, PAI-1 validated by ELISA) (isolated monocytes): induced
- nitric oxide production (monocytes [2]): produced nitric oxide
- calcium influx (monocytes [3]): increase
- secretion of M-CSF, PAI-1, chitinase 3-like-1 and EGF [4]: increased secretion
- binding to cells (Siglec-9 [5]): found to bind
- binding to recombinant Siglec fusion protein (Siglec-9 [6]): greatest binding
- activation of SHP2 (SHP2): No activation
- phosphorylation of SHP (SHP1): not observed
